We go through eight molecules from patent US8410094B2, “Amide compounds, their pharmaceutical compositions, their preparation method and their uses” (Shanghai Institute of Materia Medica, Chinese Academy of …, priority 2008, dated 2013).

One assay relates to HIV-1 NL(AD8) virus. As to the kind of experiment: H4DA5 cell model of virus replication (β-galactosidase reporter). The format is cell-based. The conditions noted are these: for IC50: read-out: IC50 (nM) H4DA5 cell model; for inhibitory activity EC50 level in H4DA5 cell model: stated in words. Here is the method: 2. Results of Activity Assay at Cellular Level • 2.1 H4DA5 Cell Model (The Operation was Performed Under P3 Experimental Conditions) • (1) H4DA5 cells: Hela cells expressing human CD4, CCR5 receptor and reporting gene Ltr-lacZ; • (2) Appropriate amounts of H4DA5 cells were plated in 96-well plate and cultured overnight; • (3) The compound to be tested and HIV-1 NL(AD8) virus were added; • (4) Incubation for 3 days (in cell incubator at 37° C.); • (5) Virus replication was determined using β-galactosidase test kit.

A further assay concerns the target T1, CCR5 (Homo sapiens, UniProt P51681).
T1 construct: expressed in transfected cells
Put plainly: Inhibition of CCR5: [35S]GTPγS binding assays (filtration, SPA-WGA) and calcium influx assay, 10 nM RANTES, CHO-CCR5. The format is biochemical. The conditions noted are these: for pIC50: inhibition of GTPγS binding induced by 10 nM RANTES, CHO-CCR5; for inhibition against CCR5 (class symbol in IC50 column): class by inhibition at 30 nM or 300 nM. As to the method: CCR5 belongs to G-Protein-Coupled Receptor (GPCR) family. The developing technology of GPCR-based drugs have been well-developed, among them, the experimental techniques such as ligand-receptor binding assay, GTPγS binding assay and Ca^2+ flux assay have been widely used in drug-screening related to chemokine receptors. The inhibitory activities of the compounds according to the present invention against CCR5 are measured by three methods, i.e., [^35S]GTPγS filter binding assay, SPA-WGA-based [^35S]GTPγS binding assay and calcium influx assay. At the same time, the antiviral activities in cell of the compounds according to the present invention are evaluated by using two kinds HIV-1 subtypes: H4DA5 cell model and PBMC system virus replication model.
A. [^35S]GTPγS Binding Assay
After binding with an agonist, CCR5 experiences a conformation change such that CCR5 interacts with G protein so as to active the G protein. G protein is a tripolymer composed of α-subunit and βγ-subunit. Since the ability of α-subunit binding to GTP depends on the interaction of CCR5 with the agonist, the ability of an agonist for activating CCR5 can be reflected by determining the amount of GTP binding to α-subunit. In a GTPγS binding assay, a ^35S-labeled GTP analogue GTPγS, which can bind with an activated α-subunit without being hydrolyzed, is used to replace GTP in order for eliminating the defect that the amount of GTP binding to G protein can not exactly reflect the activation of CCR5 due to the hydrolysis of GTO by GTPase and for convenience of detection. So, α-subunit binds with GDP when CCR5 is not activated, and after the activation of CCR5, α-subunit binds with GTPγS such that GTPγS irreversible binds to α-subunit. Therefore, the amount of [^35S]-GTPγS binding to α-subunit could reflect the level of CCR5 activated by an agonist. The ability of the agonist for activating CCR5 will decrease when an antagonist is added.
Such experiment has been referred to as GTPγS filtration assay in which [^35S]-GTPγS bound with the free G protein could be separated by membrane filtration.
Alternatively, SPA (Scintillation Proximity Assay) technique can be used to detect the [^35S]-GTPγS bound to G protein, which is called SPA-WGA-based [35S]GTPγS binding assay. The principle of SPA technique is as follows. Sub-atomic particles released during the decay of radioactive atoms, for example β-ray (electron), can excite microspheres at a sufficiently close distance to emit light so as to be detected by a Scintillation Counter. In an aqueous solution, most of the energy of these rays is absorbed by the solvent, and the traveling distance of these rays is limited.
The activation of G protein by CCR5 is determined by the following experiments.
CHO (Chinese hamster ovary cell) permanent cell line expressing CCR5 (CHO-CCR5) (a cell line constructed by Shanghai Targetdrug Ltd.) was lysed with a lysis buffer (5 mM Tris-HCl, pH 7.5, 5 mM EDTA and 5 mM EGTA) and then centrifugated at 15,000×g for 10 min to obtain cell membrane. After the cell membrane was resuspended in a reaction buffer (5 mM Tris-HCl, pH 7.5, 5 mM MgCl2, 1 mM EGTA, 100 mM NaCl), the protein concentration was determined using Bioford Protein Assay Kit manufactured by Bio-Rad Laboratories Inc. Subsequently, GTPγS binding assay was performed in the reaction buffer, wherein the reaction system was 100 μL containing 10 μg membrane protein, 40 μM GDP and 0.5 nM [^35S]-GTPγS (1200 Ci/mmol). After the compound to be tested (the compound was first dissolved in DMSO and then diluted in gradient with the reaction buffer according to the specific situation, wherein the final concentration of DMSO was 1% (v/v) in the whole reaction system) was added and shaken to mix homogeneously, the reaction tube was incubated at 30° C. for 1 hour. After the reaction finished, the tube was placed on ice, and the reaction mixture was diluted with PBS to quench the reaction and filtered under reduced pressure with a GF/C filter membrane. […]
For orientation: Binding of GTPγS marks nucleotide exchange on a G protein.

Another assay relates to HIV-1 Ba-L virus. As to the kind of experiment: PBMC system of virus replication model (p24 antigen). The format is cell-based. The conditions noted are these: for IC50: read-out: IC50 (nM) PBMC system of virus replication model. As to the method: 2.2 PBMC System of Virus Replication Model (The Operation was Performed Under P3 Experimental Conditions) • (1) PBMC cells were separated from the blood from two people (using Ficoll gradient separation method); • (2) the PBMC cells were stimulated using PHA and incubated for 3 days in a cell incubator at 37° C. at a density of 2×10^6 cells/ml. • (3) PBMC cells were resuspended in a RF-10 medium (RF-10/IL2) containing 100 U/mL IL-2 (30 uL RF-10/IL2 medium containing 4 times of the final concentration of the compound to be tested and 40 uL RF-10/IL2 medium containing HIV-1 Ba-L virus (1400 pfu/well) were added in the plate (200,000 cells/50 uL/well). • (4) After incubated 24 hours, RF-10/IL2 medium containing 1 time of the final concentration of the compound to be test was added in each well. After infected for 4 days, 100 ul fresh RF-10/IL2 medium containing the compound to be tested at the final concentration to replace the original medium. After incubated for 2 days, the supernatant of each well was collected, and the content of p24 was determined. • (5) The content of P24 antigen in the supernatant of each well was measured by Vironostik p24 test kit to detect the virus replication.

Where [1] appears, read: Human immunodeficiency virus 1, 72 h.

pIC50: −log10 of the molar value. Like-named read-outs stand apart in the source and are kept apart here.

T1 sequence (P51681 whole entry): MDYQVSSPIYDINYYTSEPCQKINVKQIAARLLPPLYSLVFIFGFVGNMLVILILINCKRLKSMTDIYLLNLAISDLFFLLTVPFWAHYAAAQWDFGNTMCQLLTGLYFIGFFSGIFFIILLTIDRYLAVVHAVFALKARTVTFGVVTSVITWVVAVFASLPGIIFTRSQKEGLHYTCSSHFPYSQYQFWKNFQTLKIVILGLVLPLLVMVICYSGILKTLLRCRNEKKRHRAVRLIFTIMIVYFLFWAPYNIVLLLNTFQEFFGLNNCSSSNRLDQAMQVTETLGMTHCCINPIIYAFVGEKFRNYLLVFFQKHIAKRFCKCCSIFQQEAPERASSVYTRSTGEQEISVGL

For `CC(=O)N1CCC(C(=O)N(CCCN2[C@@H]3CC[C@H]2C[C@H](NC(=O)OCc2ccccc2)C3)c2ccc(C)c(Cl)c2)CC1` [Compound 8, 1-acetyl-N-(3-chloro-4-methylphenyl)-N-(3-(3-exo-benzyloxymethanamido-8-azabicyclo[3.2.1]oct-8-yl)propyl)-4-piperidinylcarboxamide], in the assay on HIV-1 NL(AD8) virus (setting [1]), the IC50 – broadly, the concentration at which inhibition is half-maximal – is 220 nM. The “inhibitory activity EC50 level in H4DA5 cell model” value in the assay on HIV-1 NL(AD8) virus is given as 100 nM level. The negative logarithm of the IC50 (pIC50) – broadly, −log10 of the IC50, conventionally taken in molar units – on CCR5 is 7.74.
Consider `CC(=O)N1CCC(C(=O)N(CCCN2[C@@H]3CC[C@H]2C[C@H](NS(=O)(=O)c2ccc(C)cc2)C3)c2ccc(C)c(Cl)c2)CC1` [Compound 9b, 1-acetyl-N-(3-chloro-4-methylphenyl)-N-(3-(3-exo-p-tolylsulfonamido-8-azabicyclo[3.2.1]oct-8-yl)propyl)-4-piperidinylcarboxamide], for which the half-inhibitory concentration (IC50) in the assay on HIV-1 NL(AD8) virus (setting [1]) amounted to 1 nM; in the assay with HIV-1 Ba-L virus (Human immunodeficiency virus 1, BAL, PBMC), 0.42 nM. For the same molecule, in the assay with HIV-1 NL(AD8) virus, the “inhibitory activity EC50 level in H4DA5 cell model” value is recorded as “nM level”. Further, the “inhibitory activity EC50 level in PBMC system of virus replication model” value with HIV-1 Ba-L virus (stated in words) is “nM level”. The pIC50 on CCR5 is 8.22.
For the molecule `Cc1ccc(S(=O)(=O)NC2CC3CCC(C2)N3CCCN(C(=O)C2CCCCC2)c2ccc(C)c(Cl)c2)cc1` (stereo not drawn) [Compound 15a, N-(3-chloro-4-methylphenyl)-N-(3-(3-exo-(4-tolylsulfonamido)-8-azabicyclo[3.2.1]oct-8-yl)propyl)cyclohexylcarboxamide], the inhibition (as a rule, the share of the control response that was lost under treatment) at 0.03 µM on CCR5 (compound at 30 nM, 10 nM RANTES, read-out: inhibition against CCR5 @30 nM) was 45.2%. In addition, the inhibition at 0.3 µM at CCR5 (compound at 300 nM, 10 nM RANTES, read-out: inhibition against CCR5 @300 nM) was 100%.
On to `Cc1ccc(S(=O)(=O)N[C@@H]2C[C@H]3CC[C@@H](C2)N3CCCN(C(=O)C2CCN(S(C)(=O)=O)CC2)c2ccc(C)c(Cl)c2)cc1` [Compound 15b, N-(3-chloro-4-methylphenyl)-N-(3-(3-exo-(4-tolylsulfonamido)-8-azabicyclo[3.2.1]oct-8-yl)propyl)-1-(methylsulfonyl)-4-piperidinylcarboxamide], for which the pIC50 at CCR5 is 8.69.
With `Cc1ccc(S(=O)(=O)NC2CC3CCC(C2)N3CCCN(C(=O)OCc2ccccc2)c2ccc(C)c(Cl)c2)cc1` (stereo not drawn) [Compound 15c, 3-chloro-4-methylphenyl(3-(3-exo-(4-toluenesulfonamido)-8-azabicyclo[3.2.1]oct-8-yl)propyl)carbamic acid benzyl ester], the “inhibition against CCR5 (class symbol in IC50 column)” value on CCR5 was “++ (the compound at 300 nM has an inhibition against CCR5 of more thant 50% at 300 nM)”.
The same measure, in the same setting: for `Cc1ccc(S(=O)(=O)NC2CC3CCC(C2)N3CCCN(C(=O)Nc2ccccc2)c2ccc(C)c(Cl)c2)cc1` (stereo not shown) [Compound 15d] the value was “++ (the compound at 300 nM has an inhibition against CCR5 of more thant 50% at 300 nM)”; for `Cc1ccc(S(=O)(=O)NC2CC3CCC(C2)N3CCCN(c2ccc(C)c(Cl)c2)S(=O)(=O)c2ccc(C)cc2)cc1` (stereo not drawn) [Compound 15e, N-(3-chloro-4-methylphenyl)-4-methyl-N-(3-(3-exo-(4-tolylsulfonamido)-8-azabicyclo[3.2.1]oct-8-yl)propyl)phenylsulfonamide], “++ (the compound at 300 nM has an inhibition against CCR5 of more thant 50% at 300 nM)”.
As to Maraviroc [reference compound], the IC50 with HIV-1 NL(AD8) virus (Hela cells expressing human CD4, CCR5 and Ltr-lacZ, HIV-1 NL(AD8), 3 days) was 1.5 nM; in the assay with HIV-1 Ba-L virus (PHA-stimulated PBMC, HIV-1 Ba-L, p24), 0.35 nM.
